Measurements reported in patent US9205130B2, “Orally administrable pharmaceutical pellet of epidermal growth factor” (CENTRO DE INGENIERIA GENETICA Y BIOTECNOLOGIA, priority 2010, dated 2015).

Test system: 3T3 A31 cells
Assay: Biological activity: induction of proliferation of 3T3 A31 cells, crystal violet
Assay type: cell-based, mouse
Conditions: before being formulated in form of capsule
Experimental: The activity of epidermal growth factor in capsules of example 1 packaged in blisters and stored at temperatures of 5±3° C. were tested. This biological test is based on the capacity of the epidermal growth factor human recombinant (EGF Hu-r) to induce the proliferation of cell lines of mouse embryos of 3T3/A3 which are extremely sensitive to contact inhibition cell division.
For determining the capability of induction of cell proliferation of EGF and its duration, the method comprises the quantification of the absorption of colorant crystal violet by the living cells 3T3 A31.
The preparation of samples of EGF comprises the addition of 100 ml of phosphate saline buffer (PBS1×) to the content of 10 capsules of Example 1, maintaining agitation for 15 minutes. The resultant suspension was centrifuged for 5 minutes at 9000 rpm and the aqueous solution was collected.
Cells 3T3 A31 in 96-plates at a concentration of 1.5×10^5 cells/mL were sown. These plates were incubated at 37° C., 5% CO2 and 95% humidity for 24 hours.
After completing the incubation time, cells were washed twice with 100 μl of PBS1× and then 100 μl of DMEM 1× without fetal bovine serum (SFB) was added to the medium and plates were incubated at 37° C., 5% CO2 and 95% humidity for another 24 hours. […]

epidermal growth factor [epidermal growth factor human recombinant, before being formulated in form of capsule]
Reference biological activity of EGF: 2×10^6 UI/mg
